Data on 22 compounds can be found in patent US8691818B2, “Cyclic triazo and diazo sodium channel blockers” (University Of Greenwich, priority 2008, dated 2014).

Each structure is given as a SMILES string. pIC50: −log10 of the molar value. Counter-ions that a name gives are not always drawn. A value given as a limit tells only on which side of the number the result lay.

Data set [1] relates to sodium channel. In words: [14C]guanidine flux: veratrine-evoked uptake of [14C]guanidine into rat forebrain synaptosomes (primary sodium channel assay). The following applies: 30° for 2½ min. In kind it is biochemical. The method, boiled down: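 Synaptosomal fraction from male Wistar rat forebrain (without cerebellum/medulla), 20-25 mg wet weight/ml. Veratrine-evoked [14C]guanidine uptake at 30° for 2½ min across a compound concentration range; IC50 from concentration-effect curves, mean±sem.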

The target of data set [2] is T1, DiHydroFolate Reductase (DHFR) (Rattus norvegicus, UniProt Q920D2).
T1 construct: from tissue; host or cells: rat liver homogenate supernatant
T1 sequence (Q920D2 1-187): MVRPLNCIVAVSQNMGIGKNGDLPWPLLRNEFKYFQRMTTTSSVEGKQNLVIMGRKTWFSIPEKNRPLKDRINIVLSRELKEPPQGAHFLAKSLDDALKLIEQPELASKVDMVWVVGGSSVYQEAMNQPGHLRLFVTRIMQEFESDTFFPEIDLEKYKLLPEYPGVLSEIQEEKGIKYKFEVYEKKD
In words: Inhibition of binding of [3H]methotrexate to rat liver homogenate supernatant. The following applies: 125 μM; read-out: [3H]mtx binding (% inhibition @ 125 μM). The method, boiled down:
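Displacement of [3H]methotrexate binding to rat liver homogenate supernatant, prepared at 4 °C in pH 6.0 phosphate buffer with 15 mM dithiothreitol. Values are mean±sem over the number of experiments shown.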

For data set [3], the system named is 0.4 mm slices of rat hippocampus. In words: tissue or blood. In kind it is cell-based. As to conditions: for Emax at 30 µM: Rattus norvegicus, read-out: % protection (v 1 μM TTX) (mean ± sem) (no. of expt's).
Data set [4] deals with hERG (Homo sapiens, UniProt Q12809). In words: hERG: inhibition of binding of [3H]astemizole to HEK-293 cells expressing human recombinant hERG. As to conditions: for inhibition at 10 µM: human, probe [3H]astemizole. A general note: hERG is a cardiac potassium channel; its block is linked to QT prolongation.
Data set [5] relates to L-Type Calcium Channels. In words: L-type calcium channels: inhibition of binding of [3H]nitrendipine to rat cerebral cortex membranes. As to conditions: for L-type Ca2+ % inhibition @ 10 μM: [3H]nitrendipine binding; for IC50: read-out: L-type Ca2+ IC50 (μM) (extrapolated from 10 μM inh'n), extrapolated assuming binding slope 1.0.
Data set [6] has as its system Sodium Channel, Site 2. In kind it is binding, Wistar Rat. As to conditions: for pIC50: read-out: [3H]BTX-B binding Extrapolated IC50.
Where [7] appears, read: 30 μM, iodoacetate 400 μM insult, slice ATP.

Chain of hERG (Q12809 whole entry): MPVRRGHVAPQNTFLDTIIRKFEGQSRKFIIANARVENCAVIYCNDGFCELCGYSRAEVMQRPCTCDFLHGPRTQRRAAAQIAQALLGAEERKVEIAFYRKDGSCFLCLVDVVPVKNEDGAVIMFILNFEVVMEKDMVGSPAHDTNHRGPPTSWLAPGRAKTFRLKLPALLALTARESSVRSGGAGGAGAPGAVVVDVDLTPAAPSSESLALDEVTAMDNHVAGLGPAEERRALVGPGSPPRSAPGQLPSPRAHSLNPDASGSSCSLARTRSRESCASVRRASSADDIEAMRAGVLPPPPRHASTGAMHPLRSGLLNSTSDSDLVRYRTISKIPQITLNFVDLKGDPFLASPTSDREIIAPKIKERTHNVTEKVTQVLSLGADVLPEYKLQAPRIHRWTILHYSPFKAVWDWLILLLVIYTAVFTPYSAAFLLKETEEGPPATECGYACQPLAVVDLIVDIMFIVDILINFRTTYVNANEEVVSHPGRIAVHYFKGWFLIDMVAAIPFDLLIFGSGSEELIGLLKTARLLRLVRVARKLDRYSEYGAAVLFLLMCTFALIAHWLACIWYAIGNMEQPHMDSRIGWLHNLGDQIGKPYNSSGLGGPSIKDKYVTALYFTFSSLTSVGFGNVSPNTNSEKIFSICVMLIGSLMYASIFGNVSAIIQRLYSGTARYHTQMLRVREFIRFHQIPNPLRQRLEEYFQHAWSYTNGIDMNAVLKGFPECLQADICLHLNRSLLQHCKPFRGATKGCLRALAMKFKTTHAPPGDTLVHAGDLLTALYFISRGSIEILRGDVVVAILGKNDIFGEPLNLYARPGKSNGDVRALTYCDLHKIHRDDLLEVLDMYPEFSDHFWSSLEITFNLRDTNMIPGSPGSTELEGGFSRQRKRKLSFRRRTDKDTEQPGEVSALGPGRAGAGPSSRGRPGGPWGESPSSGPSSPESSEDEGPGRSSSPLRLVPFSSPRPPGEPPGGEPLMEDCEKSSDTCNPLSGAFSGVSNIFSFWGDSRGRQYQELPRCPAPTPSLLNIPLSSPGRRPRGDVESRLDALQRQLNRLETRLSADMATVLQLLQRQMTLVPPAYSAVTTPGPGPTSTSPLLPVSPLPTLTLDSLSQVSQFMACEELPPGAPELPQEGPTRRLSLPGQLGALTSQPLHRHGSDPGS

Usually pIC50 stands for −log10 of the IC50, conventionally taken in molar units. In general, inhibition refers to the drop in the measured response relative to a control, in per cent. Take `Nc1nnc(C(c2ccccc2)c2ccccc2)c(N)n1` [CEN-130, 3,5-Diamino-6-(diphenylmethy)-1,2,4-triazine]: the pIC50 in data set [1] is 4.69. In addition, the inhibition at 125 µM in data set [2] came out at 2%. Moreover, the Emax at 30 µM in data set [3] (setting [7]) worked out at 39%. In data set [4], the pIC50 is less than 3.70 and the inhibition at 10 µM was -2%.
Turning to `NC1=N[C@H](O)[C@H]2[C@H]3O[C@]4(O)O[C@@H]([C@@H](O)[C@@]2(N1)[C@@H]4O)[C@]3(O)CO` [TTX, tetrodotoxin, reference compound], the “% protection (v 1 μM TTX)” value in data set [3] is on record as 100%.
Broadly, the IC50 is the concentration that gives 50% inhibition. `CCc1nc(N)nc(N)c1-c1ccc(Cl)cc1` [CEN-48, 2,4-Diamino-5-(4-chlorophenyl)-6-ethyl-pyrimidine, reference compound] gave a pIC50 in data set [1] of 5.24. Besides, in data set [5], the “L-type Ca2+ % inhibition @ 10 μM” value was −1% and the IC50 was more than 190 µM. Besides, in data set [4], the pIC50 was 4.34 and the inhibition at 10 µM amounted to 18%.
Take `O=C1NC(=O)C(c2ccccc2)(c2ccccc2)N1` [DPH, reference compound]: the “% protection (v 1 μM TTX) (mean ± sem) (no. of expt's)” value in data set [3] (setting [7]) was found to be 48%.
Usually melting point stands for the temperature, or range, at which the solid turns liquid. In turn, `Nc1nnc(-c2ccc(F)c(F)c2F)c(N)n1` [CEN-206, 3,5-Diamino-6-(2,3,4-trifluorophenyl)-1,2,4-triazine] came in with a melting point of 242 to 243 °C. In data set [6], the “[3H]BTX-B binding % inhibition (@ 10 μM)” value turned out to be 24% and the negative-log IC50 (pIC50) is 4.49.
In data set [1], `Nc1cnc(-c2cc(Cl)cc(Cl)c2Cl)c(N)n1` [CEN-86, 2,6-Diamino-3-(2,3,5-trichlorophenyl)pyrazine] gave a pIC50 of 4.85. The inhibition at 125 µM in data set [2] is -5%. Further, in data set [5], the “L-type Ca2+ % inhibition @ 10 μM” value was 9% and the IC50 is 101 µM. For the same compound, the Emax at 30 µM in data set [3] (setting [7]) stood at 98%. For the same compound, in data set [4], the pIC50 is less than 3.70 and the inhibition at 10 µM worked out at 1%.
As for `N=c1nc(N)c(-c2cc(Cl)cc(Cl)c2Cl)nn1CC(F)F` [CEN-85, 5(3)-Amino-6-(2,3,5-trichlorophenyl)-2,3(2,5)-dihydro-3(5)-imino-2-(2,2-difluoroethyl)-1,2,4-triazine], the melting point is 168 to 170 °C (dec.). In data set [1], this compound showed a pIC50 of 5.44. Moreover, the inhibition at 125 µM in data set [2] was -5%. For the same compound, in data set [5], the “L-type Ca2+ % inhibition @ 10 μM” value is listed as −15% and the IC50 is more than 190 µM. Besides, in data set [4], the pIC50 is 4.80 and the inhibition at 10 µM worked out at 39%.
`Nc1nnc(-c2cc(OCC(F)(F)F)ccc2OCC(F)(F)F)c(N)n1` [CEN-140, 3,5-Diamino-6-[2,5-bis(2,2,2-trifluoroethoxy)phenyl]-1,2,4-triazine] had a pIC50 in data set [1] of 3.64. The inhibition at 125 µM in data set [2] was 3%. Moreover, the Emax at 30 µM in data set [3] (setting [7]) is -11%.
As for `Nc1ncc(-c2cc(Cl)cc(Cl)c2Cl)c(N)n1` [CEN-47, 2,4-Diamino-5-(2,3,5-trichlorophenyl)pyrimidine, reference compound], the negative logarithm of the IC50 (pIC50) in data set [1] was 4.88. The Emax at 30 µM in data set [3] (setting [7]) was found to be 98%. For the same compound, in data set [4], the pIC50 was 4.46 and the inhibition at 10 µM is 22%.
The compound `Nc1nnc(-c2cc(F)c(F)cc2Cl)c(N)n1` [CEN-207, 3,5-Diamino-6-(2-chloro-4,5-difluorophenyl)-1,2,4-triazine] returned a melting point of 240 to 242 °C. In addition, in data set [6], the “[3H]BTX-B binding % inhibition (@ 10 μM)” value is 30% and the negative-log IC50 (pIC50) was 4.64.
For `Nc1nnc(-c2ccccc2OCc2ccccc2)c(N)n1` [CEN-160, 3,5-Diamino-6-(2-Benzyloxyphenyl)-1,2,4-triazine], the pIC50 in data set [1] was 3.53. Further, the inhibition at 125 µM in data set [2] is -11%. In addition, in data set [3] (setting [7]), the Emax at 30 µM turned out to be 0%. Moreover, in data set [4], the negative-log IC50 (pIC50) is less than 3.70 and the inhibition at 10 µM came to 0%.
For the compound `Cn1nc(-c2cc(F)c(F)cc2Cl)c(N)nc1=N` [CEN-204, 5(3)-Amino-6-(2-chloro-4,5-difluoro-5-phenyl)-2,3(2,5)-dihydro-3(5)-imino-2-methyl-1,2,4-triazine mesylate], in data set [6], the “[3H]BTX-B binding % inhibition (@ 10 μM)” value is listed as 52% and the pIC50 was 5.05.
Turning to `CCn1nc(-c2cc(C(F)(F)F)cc(Cl)c2F)c(N)nc1=N` [CEN-203, 5(3)-Amino-6-(3-chloro-2-fluoro-5-trifluoromethyphenyl)-2,3(2,5)-dihydro-3(5)-imino-2-ethyl-1,2,4-triazine mesylate], in data set [6], the “[3H]BTX-B binding % inhibition (@ 10 μM)” value amounted to 102% and the negative-log IC50 (pIC50) is more than 6.30.
Take `Nc1nnc(-c2cc(Cl)ccc2C(F)(F)F)c(N)n1` [CEN-200, 3,5-Diamino-6-(5-chloro-2-trifluoromethylphenyl)-1,2,4-triazine]: the melting point fell in the range of 242 to 243 °C. In data set [6], the “[3H]BTX-B binding % inhibition (@ 10 μM)” value is on record as 14% and the negative logarithm of the IC50 (pIC50) was 4.21.
For the compound `Cc1ccc(S(=O)(=O)O)cc1.Nc1nnc(-c2c(C(F)(F)F)ccc(Cl)c2Cl)c(N)n1` [CEN-209, 3,5-Diamino-6-(2,3-dichloro-6-trifluoromethylphenyl)-1,2,4-triazine tosylate], in data set [6], the “[3H]BTX-B binding % inhibition (@ 10 μM)” value was 36% and the pIC50 was 4.74.
Regarding `Nc1cnc(-c2cccc(Cl)c2Cl)c(N)n1` [CEN-87, 2,6-Diamino-3-(2,3-dichlorophenyl)pyrazine], the melting point is 150 to 153 °C. This compound also gave a pIC50 in data set [1] of 3.54. Further, the inhibition at 125 µM in data set [2] was -5%. Besides, in data set [5], the “L-type Ca2+ % inhibition @ 10 μM” value came out at 7% and the IC50 is 133 µM. In data set [4], the pIC50 was less than 3.70 and the inhibition at 10 µM was 3%.
Regarding `Nc1nnc(-c2cc(F)c(F)c(F)c2F)c(N)n1` [CEN-208, 3,5-Diamino-6-(2,3,4,5-tetrafluorophenyl)-1,2,4-triazine], the melting point lay within 233 to 235 °C. In data set [6], the “[3H]BTX-B binding % inhibition (@ 10 μM)” value worked out at 31% and the negative logarithm of the IC50 (pIC50) is 4.66.
As to `Cc1ccc(S(=O)(=O)O)cc1.Nc1nnc(-c2c(F)c(F)c(F)c(F)c2F)c(N)n1` [CEN-212, 3,5-Diamino-6-(2,3,4,5,6-pentafluorophenyl)-1,2,4-triazine tosylate], in data set [6], the “[3H]BTX-B binding % inhibition (@ 10 μM)” value amounted to 0% and the pIC50 is less than 3.70.
As to `Nc1nnc(-c2cccc(C(F)(F)F)c2Cl)c(N)n1` [CEN-199, 3,5-Diamino-6-(2-chloro-3-trifluoromethylphenyl)-1,2,4-triazine], in data set [6], the “[3H]BTX-B binding % inhibition (@ 10 μM)” value came to 29% and the negative-log IC50 (pIC50) is 4.60.
As to `Nc1nnc(C(c2ccccc2)C2CCCC2)c(N)n1` (stereo not shown) [CEN-163, 3,5-Diamino-6-(1-cyclopentyl-1-phenylmethy)-1,2,4-triazine], the pIC50 in data set [1] is 5.10; in data set [4] it was 4.09. In data set [2], the inhibition at 125 µM is 13%. Further, the Emax at 30 µM in data set [3] (setting [7]) came to 56%. In data set [4], the inhibition at 10 µM was determined as 11%.
In the case of `CN1CCN(c2ncc(-c3cc(Cl)cc(Cl)c3Cl)c(N)n2)CC1` [Sipatrigine, reference compound], the Emax at 30 µM in data set [3] (setting [7]) stood at 58%.
The compound `Nc1nnc(C2(c3ccc(Cl)cc3)CCC2)c(N)n1` [CEN-152, 3,5-Diamino-6-[1-(4-chlorophenyl)-1-cyclobuty]-1,2,4-triazine] had a negative logarithm of the IC50 (pIC50) in data set [1] of 3.32. Besides, in data set [2], the inhibition at 125 µM came out at 1%. Besides, the Emax at 30 µM in data set [3] (setting [7]) was -10%.
